Test results from a melting point compilation (Tetko et al.).

Work on `COc1cc([N+](=O)[O-])c(OC)cc1N` yielded a melting point of 153 to 157 °C. With `CC1(C)NC(=CC(=O)c2ccccc2)C(C)(C)N1O` the melting point was 178 to 184 °C. In the case of `O=Cc1cccc2cccc(C(=O)O)c12`, the melting point is reported as 160 to 167 °C. `c1ccc(N2CCOCC2)cc1` gave a melting point of 51 to 54 °C. With `O=S(=O)(Cl)c1ccc(-c2ccno2)s1` the melting point was 69 to 70 °C. `OCC(c1ccccc1)c1ccccc1` gave a melting point of 64.5 °C. `CC(C)CCNCCC(C)C` gave a melting point of -44 °C. For `CC(C)(C)OC(=O)N1Cc2[nH]c3ccccc3c2C[C@H]1C(=O)O`, the melting point was 286 to 291 °C. Compound `O=C(O)c1scc2c1OCCO2` has a melting point of 205 to 206 °C. For `O=C(Cc1ccc(-c2ccccc2)cc1)Nc1ccccn1`, the melting point was 122 °C. In the case of `CC1(C)OCC(C(O)C(O)C2COC(C)(C)O2)O1` (stereo not drawn), the melting point is reported as 114 °C. Compound `Cc1cc(C)c(C(N)=O)c(N)n1` has a melting point of 172 to 174 °C. With `Nc1ccc(C(=O)O)cc1OC(F)(F)F` the melting point was 168 to 169 °C. For `CC(=O)NCc1ccccc1`, the melting point was 61 °C. With `O=C(C1=NOC2C(=O)N(c3cc(Cl)ccc3Cl)C(=O)C12)c1cccs1` (stereo not drawn) the melting point was 221 °C. `CC(=O)Oc1ccc(N)cc1` gave a melting point of 74 °C. In the case of `COC(=O)C=Cc1ccc(C=CC(=O)OC)c(N)c1`, the melting point is reported as 159 °C. Compound `Cc1ccccc1NN=C1C(=O)OC(C)(C)OC1=O` has a melting point of 106 °C. For `Clc1cccc(O[Si]23OCCN(CCO2)CCO3)c1`, the melting point was 245 °C. Work on `O=[N+]([O-])c1ccc(N/N=C2\Cc3ccccc32)c([N+](=O)[O-])c1` yielded a melting point of 203 °C. Work on `Oc1ccc2ncccc2c1` yielded a melting point of 190 to 195 °C. In the case of `NC(=O)CN(CC(=O)O)CC(=O)O`, the melting point is reported as 219 °C. `S=C=Nc1ccccc1N=C=S` showed a melting point of 56 to 58 °C. For `Fc1cc2nsnc2cc1Cl`, the melting point was 78 °C. For `CCCCC(=O)OC1(C(=O)CO)C(C)CC2C3CCC4=CC(=O)C=CC4(C)C3(F)C(O)CC21C` (stereo not drawn), the melting point was 184 °C. For `N#Cc1c(NC(=O)CCl)sc2c1CCCC2`, the melting point was 179 to 180 °C. `Cc1cc(Br)cc(C)c1I` showed a melting point of 42 to 44 °C. Work on `CCCCC(C=O)CC` (stereo not drawn) yielded a melting point of -76 °C. Work on `Nc1cccc2c1Cc1ccccc1-2` yielded a melting point of 126 °C. With `CC(=O)CCc1cc2c(c([N+](=O)[O-])c1)CCC(C)N2C(=O)c1ccc([N+](=O)[O-])cc1` (stereo not drawn) the melting point was 115 °C. Work on `CC(=O)/N=c1\sc(C(C)=O)nn1-c1ccccc1[N+](=O)[O-]` yielded a melting point of 184 °C. In the case of `Cc1csc2ncnc(Cl)c12`, the melting point is reported as 137 to 138 °C. For `Cc1cc(C(=O)O)c(C(F)(F)F)o1`, the melting point was 124 to 126 °C. In the case of `COC(=O)CCC(C)C1CCC2C3C(OC(C)=O)C(Br)C4CCCCC4(C)C3CCC12C` (stereo not drawn), the melting point is reported as 158 to 159 °C. Compound `CCCCC(C(=O)O)C(=O)N(Nc1ccccc1)c1ccccc1` (stereo not drawn) has a melting point of 116 °C. Work on `O=C(C=Cc1ccc(O)cc1)c1ccccc1` yielded a melting point of 184 °C. Work on `FC12CC3CC(CC(C3)C1)C2` yielded a melting point of 225 °C. Work on `O=C(OCC(=O)N1CCOCC1)c1ccccc1` yielded a melting point of 104 °C. Compound `CCC(C)(CC)C(C)(C)C` has a melting point of -42.5 °C. `CC(=O)C=C(C)C` gave a melting point of -53 °C. Compound `CC1=NN(c2ccccc2)C(=O)C1C(=O)C(F)(F)F` (stereo not drawn) has a melting point of 143 °C. `CC(=O)OC1CC2CCC1(C)C2(C)C` (stereo not drawn) gave a melting point of 29 °C. `CCSCC(=O)O` showed a melting point of -8.5 °C. Work on `COc1cc(O)c2c(=O)c(-c3ccc(O)cc3)coc2c1` yielded a melting point of 240 °C. Compound `CC(CS)C(=O)N1CCCC1C(=O)O` (stereo not drawn) has a melting point of 106 °C. `CCCCOC(=O)CC(CC(=O)OCCCC)(OC(C)=O)C(=O)OCCCC` gave a melting point of -59 °C. `CCCCCCCCOc1ccccc1OCCCCCCCC` showed a melting point of 22 to 25 °C. `O=Cc1cccc(-n2cccn2)c1` showed a melting point of 38 to 39 °C. Compound `Cc1cccc(NC(=O)c2ccccc2)c1` has a melting point of 125 °C. `CCCCCCCCCCCCCC=CC(O)C(CO)NC(C)=O` (stereo not drawn) gave a melting point of 93 to 96 °C. In the case of `COc1ccc(C(N)=S)cc1[N+](=O)[O-]`, the melting point is reported as 191 to 192 °C. Work on `CNC(=S)NCc1ccccc1` yielded a melting point of 75 °C. For `O=C(C=Cc1ccc(Cl)cc1)c1ccc(Cl)cc1`, the melting point was 158 °C. Compound `Cn1cnc2c1c(=O)[nH]c(=O)n2C` has a melting point of 357 °C. In the case of `c1ccc2c(c1)OCCOCCOCCOCCOc1ccccc1OCCOCCO2`, the melting point is reported as 59 to 63 °C. With `ClCC1C(CCl)C2(Cl)C(Cl)=C(Cl)C1(Cl)C2(Cl)Cl` (stereo not drawn) the melting point was 105 °C. Compound `O=S(=O)(c1ccccc1)n1cc(Br)c2ccccc21` has a melting point of 120 to 121 °C. Work on `CC(OC(=O)c1ccc([N+](=O)[O-])cc1)c1cccc(C(C)OC(=O)c2ccc([N+](=O)[O-])cc2)c1` (stereo not drawn) yielded a melting point of 139 to 145 °C. Work on `Oc1c(F)c(F)cc(F)c1F` yielded a melting point of 38 °C. `Oc1c(Cl)cc(Cl)cc1Br` showed a melting point of 68 °C. `Cc1ccc(C#N)c([N+](=O)[O-])c1` gave a melting point of 97 °C. Work on `C(#CP(c1ccccc1)c1ccccc1)P(c1ccccc1)c1ccccc1` yielded a melting point of 86 °C. `Cc1ccc2c(c1)OC(C)(c1ccc(C)cc1OC(=O)[C@]13CC[C@](C)(C(=O)O1)C3(C)C)CC2(C)C` (stereo partly drawn) gave a melting point of 136 °C. `O=C1NC(=NN=Cc2ccccc2)SC1=Cc1ccccc1` gave a melting point of 295 °C. Compound `Cc1cc(C(=O)CBr)ccc1Cl` has a melting point of 56 to 57 °C. In the case of `N#CCc1coc2ccccc12`, the melting point is reported as 39 to 41 °C. Compound `O=C(c1ccccc1)C(F)(F)F` has a melting point of -40 °C. Compound `C=C1C(C)C2C(Cc3ccccc3)NC(=O)C23OC(=O)C=CC(O)CCCC(C)CC=CC3C1O` (stereo not drawn) has a melting point of 218 to 223 °C. In the case of `NC(=S)c1ccccc1N`, the melting point is reported as 120 to 122 °C. In the case of `CC1CCCC(C)C1O` (stereo not drawn), the melting point is reported as 32.5 °C. Compound `O=[N+]([O-])c1ccc(ON=Cc2cc(Br)c(O)c(Br)c2)c([N+](=O)[O-])c1` has a melting point of 196 °C. `Cc1cc(C)c(CS)c(C)c1` gave a melting point of 47 °C. In the case of `O=S(=O)(Cl)c1ccc(Cl)cc1Cl`, the melting point is reported as 54 °C. `NNc1ncnc2c1cnn2-c1ccccc1` gave a melting point of 190 to 191 °C. Work on `C=C(C)CN(CC)c1c([N+](=O)[O-])cc(C(F)(F)F)cc1[N+](=O)[O-]` yielded a melting point of 55.5 °C. For `OC(c1ccccc1)(c1ccccc1)[C@@H](c1ccccc1)N1CCCCC1`, the melting point was 158 °C. For `Cc1nc(N)nc(NN)n1`, the melting point was 250 °C. `CC1(C)C(C=C(Br)Br)C1C(=O)OC(C#N)c1cccc(Oc2ccccc2)c1` (stereo not drawn) gave a melting point of 100 °C. In the case of `Cc1cc(S(=O)(=O)Cl)c(C)cc1Cl`, the melting point is reported as 49 °C. With `Cc1c(C=O)cnn1-c1ccc(F)cc1` the melting point was 113 to 115 °C. `O=C1c2ccc(C(Br)Br)c([N+](=O)[O-])c2C(=O)c2c(Cl)c(Cl)c(Cl)c(Cl)c21` showed a melting point of 246 to 248 °C. For `C=C1CCC2(O)C3Cc4ccc(O)c5c4C2(CCN3CC2CC2)C1O5` (stereo not drawn), the melting point was 189 °C. For `O=C(c1ccccc1)c1cc(C(=O)c2ccccc2)c([N+](=O)[O-])cc1[N+](=O)[O-]`, the melting point was 174 °C. `O=C(Cl)c1ccc2c(c1)OCCCO2` showed a melting point of 29 to 33 °C. With `COc1c(F)cc(F)cc1C#N` the melting point was 35 °C. For `COC(=O)[C@H](C)On1c(C)csc1=S`, the melting point was 69.8 °C. With `OC(c1ccc(F)cc1)C(O)c1ccc(F)cc1` (stereo not drawn) the melting point was 153 °C. Work on `Ic1cccc(I)c1I` yielded a melting point of 116 °C. `c1ccc2c(c1)c1cccc3c4c5ccccc5c5cccc(c2c13)c54` showed a melting point of 305 °C. For `COc1cc(CCC(=O)O)cc(OC)c1OC`, the melting point was 104 °C. For `Cc1nc(CC(=O)O)cs1`, the melting point was 124 to 125 °C. With `CCOC(=O)c1c(C)oc2c(F)c(F)c(F)c(F)c12` the melting point was 70 °C. `O=C(O)Cc1cccc(Cl)c1Cl` showed a melting point of 134 °C. In the case of `CC(C)[C@@H]1CC[C@H](C)C[C@@H]1OC(=O)c1cccc(C(=O)O)n1`, the melting point is reported as 120 °C. Compound `COC1OC(COC(=O)C(C)(C)C)C(O)C(OC(=O)C(C)(C)C)C1O` (stereo not drawn) has a melting point of 89.8 °C. `COC(=O)c1ccccc1OCc1ccccc1` gave a melting point of 47 °C. For `CCOC(=O)c1ccncc1`, the melting point was 23 °C. With `CNc1ccc(C#N)cc1N` the melting point was 139 to 142 °C. Compound `Cc1cc(O)c(C(C)(C)C)cc1Sc1cc(C(C)(C)C)c(O)cc1C` has a melting point of 162 °C. With `O=C(Nc1ccccn1)C(F)(F)C(F)(F)C(F)(F)C(F)(F)C(F)(F)C(F)(F)C(F)(F)C(F)(F)F` the melting point was 66 °C. For `N#CCc1ccccc1CC#N`, the melting point was 59 °C. With `CCCCOCC` the melting point was -124 °C. Compound `Cc1cc(C(=O)O)c(C)n1C` has a melting point of 150 °C. For `Cc1ccc(C(=O)c2cc3c(cc2Br)OCCO3)cc1`, the melting point was 110 to 112 °C. Compound `CCOC(=O)c1cc(C)n(-c2cc(C)[nH]n2)n1` has a melting point of 120 to 122 °C. In the case of `S=c1[nH]ccn1-c1ccc(Br)cc1`, the melting point is reported as 244 to 246 °C. Work on `COc1ccc([N+](=O)[O-])c(N)c1` yielded a melting point of 131 °C. For `N#Cc1ccnc(C#N)c1`, the melting point was 90 °C. Work on `COC(=O)c1cc(Br)ccc1NC(C)=O` yielded a melting point of 134 °C. Compound `CC1(C)C(C(=O)c2ccccc2)=Nc2ccccc21` has a melting point of 83 °C. For `O=C(O)c1ccc(F)cc1Br`, the melting point was 169 to 173 °C. Work on `C=CC(=O)NC(CO)(CO)CO` yielded a melting point of 136 to 141 °C. Work on `O=C(O)COc1c(Cl)ccc(Cl)c1Cl` yielded a melting point of 148 °C. Work on `O=S(=O)(Cl)Cc1ccc(Br)cc1` yielded a melting point of 117 to 121 °C. For `CCCN(CCC)c1c([N+](=O)[O-])cc(S(N)(=O)=O)cc1[N+](=O)[O-]`, the melting point was 141 °C. With `COc1ccc(N)c(C)c1` the melting point was 29.5 °C. `O=C(O)c1ccc(-c2ccco2)s1` showed a melting point of 187 to 188 °C. With `COc1ccc(CC(=O)O)cc1O` the melting point was 128 to 130 °C. Work on `Brc1ccc(Oc2ccc(Br)c(Br)c2)c(Br)c1` yielded a melting point of under 20 °C. In the case of `Clc1cc2nsnc2cc1CBr`, the melting point is reported as 75 to 77 °C. `O=C(O)/C=C/c1ccc(F)cc1F` gave a melting point of 214 to 218 °C. `Cc1c(C#N)c2ccccc2n1C` showed a melting point of 105 °C. `CC(=O)Oc1c(-c2ccccc2)[nH]c2ccccc12` showed a melting point of 107 °C. `CC(C)(C)c1ccncc1` showed a melting point of -41 °C. `COc1ccc(NN=C2C(=O)OC(C)(C)OC2=O)cc1` showed a melting point of 128 °C. For `C#CC(O)(c1ccccc1)c1ccccc1`, the melting point was 47 to 48 °C. With `O=C1Cc2cc3c(cc21)C(=O)C3` the melting point was 207 °C. With `Oc1c(Br)cc(Br)cc1-c1cc(Br)cc(Br)c1O` the melting point was 205 °C.
